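Compound exposure: 48 hours, 5 concentrations, 96-well plates. TGI: total growth inhibition.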
Assays:
Assay in all cases: NCI tumour cell line growth inhibition, 48 h
[1] = system: HCC-2998 colon
[2] = system: MALME-3M melanoma
[3] = system: SN12C renal
[4] = system: KM12 colon
[5] = system: HS 578T breast
[6] = system: SK-MEL-28 melanoma
[7] = system: MOLT-4 leukemia
[8] = system: OVCAR-8 ovarian
[9] = system: U251 CNS
[10] = system: CAKI-1 renal
[11] = system: HCT-15 colon
[12] = system: A498 renal
[13] = system: PC-3 prostate
[14] = system: NCI-H23 lung
[15] = system: UACC-257 melanoma
[16] = system: OVCAR-4 ovarian
[17] = system: HOP-62 NSCLC
[18] = system: HL-60(TB) leukemia
[19] = system: M14 melanoma
[20] = system: SF-539 CNS
[21] = system: RXF 393 renal
[22] = system: HT29 colon
[23] = system: SR leukemia
[24] = system: ACHN renal
[25] = system: UACC-62 melanoma
[26] = system: SK-MEL-2 melanoma
[27] = system: 786-0 renal
[28] = system: SK-MEL-5 melanoma
[29] = system: SNB-19 CNS
[30] = system: SF-268 CNS
[31] = system: SNB-75 CNS
[32] = system: MCF7 breast
[33] = system: HCT-116 colon
[34] = system: MDA-N
[35] = system: HOP-92 NSCLC
[36] = system: BT-549 breast
[37] = system: NCI/ADR-RES ovarian
[38] = system: CCRF-CEM leukemia
[39] = system: MDA-MB-231 breast
[40] = system: SF-295 CNS
[41] = system: UO-31 renal
[42] = system: LOX IMVI melanoma
[43] = system: NCI-H522 lung
[44] = system: NCI-H226 lung
[45] = system: SW-620 colon
[46] = system: OVCAR-3 ovarian
[47] = system: SK-OV-3 ovarian
[48] = system: EKVX NSCLC
[49] = system: IGROV1 ovarian
[50] = system: TK-10 renal
[51] = system: RPMI-8226 leukemia
[52] = system: OVCAR-5 ovarian
[53] = system: MDA-MB-435
[54] = system: T-47D breast
[55] = system: A549 NSCLC
[56] = system: COLO 205 colon
[57] = system: K-562 leukemia
[58] = system: NCI-H460 lung
[59] = system: DU-145 prostate

In the case of `COC(=O)C(=O)C(C(=O)OC)C(=O)C(=O)Nc1ccccc1C(N)=O` (stereo not drawn), the TGI [1] is reported as > 100 µM, the TGI [2] is reported as > 100 µM and the TGI [3] is reported as > 100 µM. For the same compound, the TGI [4] was > 100 µM, the TGI [5] was > 100 µM and the TGI [6] was > 100 µM. For the same compound, the TGI [7] was > 100 µM, the TGI [8] was > 100 µM and the TGI [9] was > 100 µM. For the same compound, the TGI [10] was > 100 µM, the TGI [11] was > 100 µM and the TGI [12] was > 100 µM. The TGI [13] was > 100 µM, the TGI [14] was > 100 µM and the TGI [15] was > 100 µM. For the same compound, the TGI [16] was > 100 µM, the TGI [17] was > 100 µM and the TGI [18] was > 100 µM. The TGI [19] was > 100 µM, the TGI [20] was > 100 µM and the TGI [21] was > 100 µM. For the same compound, the TGI [22] was > 100 µM, the TGI [23] was > 100 µM and the TGI [24] was > 100 µM. For the same compound, the TGI [25] was > 100 µM, the TGI [26] was > 100 µM and the TGI [27] was > 100 µM. For the same compound, the TGI [28] was > 100 µM, the TGI [29] was > 100 µM and the TGI [30] was > 100 µM. For the same compound, the TGI [31] was > 100 µM, the TGI [32] was > 100 µM and the TGI [33] was > 100 µM. For the same compound, the TGI [34] was > 100 µM, the TGI [35] was > 100 µM and the TGI [36] was > 100 µM. The TGI [37] was > 100 µM, the TGI [38] was > 100 µM and the TGI [39] was > 100 µM. The TGI [40] was > 100 µM, the TGI [41] was > 100 µM and the TGI [42] was > 100 µM. For the same compound, the TGI [43] was > 100 µM, the TGI [44] was > 100 µM and the TGI [45] was > 100 µM. For the same compound, the TGI [46] was > 100 µM, the TGI [47] was > 100 µM and the TGI [48] was > 100 µM. The TGI [49] was > 100 µM, the TGI [50] was > 100 µM and the TGI [51] was > 100 µM. For the same compound, the TGI [52] was > 100 µM, the TGI [53] was > 100 µM and the TGI [54] was > 100 µM. For the same compound, the TGI [55] was > 100 µM.
For `COc1cc2c(c(OC)c1OC)-c1ccc(SC)c(=O)cc1[C@@H](OC(=O)c1ccncc1)CC2`, the TGI [1] was 11.6 µM, the TGI [5] was > 56.5 µM and the TGI [7] was > 100 µM. For the same compound, the TGI [8] was > 100 µM, the TGI [9] was > 100 µM and the TGI [10] was 23.2 µM. The TGI [12] was 21.4 µM, the TGI [13] was > 100 µM and the TGI [14] was > 100 µM. For the same compound, the TGI [15] was 24 µM, the TGI [16] was > 100 µM and the TGI [17] was > 100 µM. The TGI [18] was > 100 µM, the TGI [19] was 56.7 µM and the TGI [20] was < 0.01 µM. The TGI [21] was > 82.9 µM, the TGI [22] was < 0.01 µM and the TGI [23] was > 39.1 µM. For the same compound, the TGI [24] was 31.2 µM, the TGI [25] was > 32.1 µM and the TGI [26] was > 100 µM. The TGI [56] was > 100 µM, the TGI [27] was > 40.3 µM and the TGI [28] was 15.4 µM. For the same compound, the TGI [29] was > 100 µM, the TGI [30] was 49.3 µM and the TGI [31] was > 100 µM. The TGI [32] was > 100 µM, the TGI [33] was > 35 µM and the TGI [34] was > 100 µM. The TGI [57] was > 100 µM, the TGI [35] was > 100 µM and the TGI [36] was 22.8 µM. For the same compound, the TGI [37] was < 0.01 µM, the TGI [38] was 46.8 µM and the TGI [39] was > 100 µM. For the same compound, the TGI [40] was < 0.01 µM, the TGI [41] was 52.6 µM and the TGI [42] was > 35.7 µM. For the same compound, the TGI [43] was 39.5 µM, the TGI [44] was < 0.01 µM and the TGI [45] was > 100 µM. For the same compound, the TGI [46] was 21.9 µM, the TGI [47] was 43.7 µM and the TGI [48] was > 100 µM. For the same compound, the TGI [49] was > 46.8 µM, the TGI [50] was 55.3 µM and the TGI [52] was > 100 µM. For the same compound, the TGI [54] was > 100 µM, the TGI [58] was 11.2 µM and the TGI [59] was > 62.7 µM. The TGI [55] was > 100 µM.
With `CCCCOC(=O)NC(c1ccccc1)C(O)C(=O)OC1C[C@@]2(O)C(OC(=O)c3ccccc3)C3[C@](C)(C(=O)[C@H](OC(C)=O)C(=C1C)C2(C)C)[C@@H](O)C[C@H]1OC[C@@]31OC(C)=O` (stereo partly drawn) the TGI [1] was 0.595 µM, the TGI [3] was > 10 µM and the TGI [4] was > 10 µM. For the same compound, the TGI [5] was 0.0469 µM, the TGI [7] was > 9.14 µM and the TGI [8] was > 10 µM. The TGI [9] was > 10 µM, the TGI [11] was > 10 µM and the TGI [12] was 0.0663 µM. The TGI [13] was > 10 µM, the TGI [14] was > 10 µM and the TGI [16] was > 10 µM. The TGI [17] was > 10 µM, the TGI [18] was 0.00741 µM and the TGI [19] was > 10 µM. It also gave a TGI [20] of 0.0175 µM, a TGI [21] of 0.0755 µM and a TGI [22] of 6.81 µM. The TGI [23] was > 10 µM, the TGI [24] was > 10 µM and the TGI [25] was > 10 µM. The TGI [56] was > 10 µM, the TGI [27] was > 10 µM and the TGI [28] was > 10 µM. The TGI [29] was > 10 µM, the TGI [30] was > 10 µM and the TGI [31] was > 10 µM. For the same compound, the TGI [32] was > 10 µM, the TGI [33] was > 10 µM and the TGI [34] was 0.0113 µM. The TGI [57] was > 10 µM, the TGI [35] was > 10 µM and the TGI [36] was > 10 µM. For the same compound, the TGI [37] was > 6.5 µM, the TGI [38] was > 10 µM and the TGI [39] was > 10 µM. For the same compound, the TGI [40] was > 10 µM, the TGI [41] was > 10 µM and the TGI [42] was > 10 µM. For the same compound, the TGI [45] was > 10 µM, the TGI [46] was > 6.88 µM and the TGI [47] was > 10 µM. For the same compound, the TGI [48] was > 10 µM, the TGI [49] was > 10 µM and the TGI [50] was > 10 µM. The TGI [51] was > 7.96 µM, the TGI [52] was > 10 µM and the TGI [53] was 0.0241 µM. The TGI [54] was > 10 µM, the TGI [58] was > 10 µM and the TGI [55] was > 10 µM.
